This note sets out measurements from publication PMC9137037 (Frontiers in Oncology, 2022).

One series concerns beagle dogs. As to the kind of experiment: Antibody isotyping of sera of immunized beagle dogs. As to conditions: dogs #1-#3. Format: in vivo, dog.
The target of series [1] is T1, human recombinant protein PD-1 (Homo sapiens, UniProt Q15116).
T1 construct: His tag; purchased ACROBiosystems PD1-H5221
As to the kind of experiment: ELISA activity of dog sera with human recombinant protein PD-1. Format: binding. Conditions: Figure 3F. As for the experimental part:
For the detection of PD-1 human recombinant protein activity, the human recombinant protein PD-1 (PD1-H5221, HIS tag; ACROBiosystems, Newark, DE, USA) 100 μl at the concentration of […] were coated on the 96 wells plate as an antigen. The following procedures were performed as the description of ELISA.
In order to investigate the diversity of the antibody produced by immunized dogs, isotypes IgM, IgA, IgG1, and IgG2 in dogs were detected after being immunized with the peptide vaccine ( Figure 3E ). In MVF-PD-1(92-110) vaccine-treated dogs, the majority of isotype is IgG2, which ranged from 74% to 81%, the IgG1 range from 12% to 18%, IgM from 5% to 9%, and IgA less than 2%. Peptide sera from dogs #1, 2, and 3 were used to detect the antibody activity against human recombinant protein PD-1.

Series [2] concerns cynomolgus monkeys. As to the kind of experiment: ELISA antibody titers, monkey study No.00213515. Format: in vivo, Macaca fascicularis. Conditions: monkey 1st set, 0.5, 2, 5 mg/dose, 2-week interval, ISA 720. As for the experimental part:
The non-human primate studies were carried out by the Charles River Laboratories (Ashland, OH USA). All the cynomolgus monkeys (Macaca fascicularis of Chinese origin) were obtained from Charles River Laboratories (Houston, TX, USA). In brief, the animals were approximately 2–4 years old and at the body weight between 2.2 and 3.1 kg at the initial dosing. The animals were kept at the temperature between 19°C and 24°C, humidity 30%–70%, and with 12 h light and 12 h dark light cycle. The Good manufacturing practice (GMP)-manufactured vaccine was used in the non-human primate study. […] Similar to mouse and dog dosing preparation, after the emulsion was prepared, a drop test was performed on each time of dosing to confirm that the emulsion had been prepared properly. […] All the animals’ body weights were monitored weekly after receiving. […]
Enzyme-linked immunosorbent assay (ELISA) was performed per our lab standard procedure. […] After washing, the antibody was detected using 50 μl of 0.15% H2O2 in 24 mM of citric acid and 5 mM of the sodium phosphate buffer (pH5.2) with 0.5 mg/ml 2, […] (3-ethylbenzthiazole- 6-sulfonic acid, ABTS; Sigma, St. Louis, MO, USA) as the chromophore. […] Absorbance was read at 415 nm using an ELISA microplate reader (SPECTRAmax PLUS384; Molecular Devices, San Jose, CA, USA). The highest dilution at the cutoff absorbance 0.2 were determined as the antibody titer. […]

For series [3], the system named is cynomolgus monkeys. As to the kind of experiment: GLP repeat-dose toxicology, second monkey study No.00213519. Format: in vivo, Macaca fascicularis. The procedure: The non-human primate studies were carried out by the Charles River Laboratories (Ashland, OH USA). All the cynomolgus monkeys (Macaca fascicularis of Chinese origin) were obtained from Charles River Laboratories (Houston, TX, USA). In brief, the animals were approximately 2–4 years old and at the body weight between 2.2 and 3.1 kg at the initial dosing. The animals were kept at the temperature between 19°C and 24°C, humidity 30%–70%, and with 12 h light and 12 h dark light cycle. The Good manufacturing practice (GMP)-manufactured vaccine was used in the non-human primate study. […] Similar to mouse and dog dosing preparation, after the emulsion was prepared, a drop test was performed on each time of dosing to confirm that the emulsion had been prepared properly. […] The dose volume was split approximately equally across two different sites; 0.5 ml of the dose was intramuscularly (IM) injected into the right posterior lateral thigh, the left dosing was injected into the left site. All the animals’ body weights were monitored weekly after receiving. After each immunization, the animal body temperature was tested 6 and 24 h post each immunization. […] The animal bleed were collected before each time of immunization to monitor the antibody titers. There were two sets of non-human primate studies conducted. The first set of monkey study No.00213515 had 24 monkeys, 12 males, and 12 females divided into 4 groups: vehicle control, low dose 0.5 mg, medium dose 2 mg, and high dose 5 mg. There were 16 monkeys (8 males and 8 females) in the second set of monkey study No. 00213519. The monkeys in the four groups were vaccinated as follows: vehicle control, low dose 25 μg, medium dose 100 μg, and high dose 250 μg.
In the second set of non-human primate study (#00213519), 16 non-human primates, cynomolgus monkeys, were used. The monkeys were immunized […] at 2-week intervals represented by 1Y, 2Y, 3Y, and 4Y at days 1, 15, 29, and 43, respectively.The bleed were collected at day 1 (pre), day 29 (2Y+2/3Y), day 43 (3Y+2 and 4Y), and day 57 (4Y+2) ( Figure 4C ). There were four groups with 4 monkeys (2 males and 2 females) in each group. Group 1 was the control group, which was treated with only ISA 720 and ddwater. […] The Immunogenicity of peptide-based vaccines in non-human primates was detected by using ELISA to detect antibody titers in the sera of both non-human primate studies ( Figures 4E, F ). The relative high antibody responses have been established in each individual cynomolgus monkey.
A slight increase in anti-APi2568 antibody titers was observed between day 29 and day 43, with no apparent reduction in titers by […].

[4] abbreviates: 0, 25, 100, 250 µg/dose, days 1, 15, 29, 43, 14-day recovery.

Where no end group is shown, it is not given here.

T1 sequence (Q15116 25-288): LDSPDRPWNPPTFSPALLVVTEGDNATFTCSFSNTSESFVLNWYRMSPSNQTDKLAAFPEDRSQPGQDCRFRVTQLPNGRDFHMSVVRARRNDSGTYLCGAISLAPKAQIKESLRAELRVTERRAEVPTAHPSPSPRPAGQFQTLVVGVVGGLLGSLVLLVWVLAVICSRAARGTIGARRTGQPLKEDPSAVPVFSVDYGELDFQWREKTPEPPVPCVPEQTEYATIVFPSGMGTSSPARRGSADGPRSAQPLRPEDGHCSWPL

Turning to “KLLSLIKGVIVHRLEGVEGPSLGAISLAPKAQIKESLRAEL [MVF-PD-1(92-110)]”, the IgA isotype percentage result in the series with beagle dogs is recorded as “less than 2%”. The “activity against recombinant PD-1 protein (summary)” value in series [1] is recorded as “high activity against recombinant PD-1 protein”. For the same sequence, in the series on cynomolgus monkeys [2], the “immunogenicity (summary)” value is recorded as “high immunogenicity”. Further, in the series with cynomolgus monkeys [3] (setting [4]), the “effects on body weight, food consumption, body temperature, clinical pathology parameters, or organ weight” value is given as “No APi2568-related adverse effects” and the survival result is “All monkeys survived to the scheduled necropsy”. This sequence also yielded a no-observed-adverse-effect level (NOAEL) in the series on cynomolgus monkeys [3] (25, 100, 250 µg/dose IM as PD1-Vaxx, male and female cynomolgus monkeys) of 100 µg/dose. In addition, the “safety (summary)” value in the series on cynomolgus monkeys [3] (monkey 2nd set) is recorded as “safe”. Further, the “microscopic finding in the biceps femoris IM injection site” value with cynomolgus monkeys [3] (single 250 µg/dose group female monkey, 4 doses at 2-week intervals) is listed as “adverse necrosis”.
